Assays:
Format in all cases: cell-based
MCF-7 cells = assay: Inhibition of cell proliferation of MCF-7 cells (CCK-8, 9 days); details: treated for 9 days, CCK-8 kit (Table 6)
Text: Test Example 4 Inhibitory effect of the PROTAC compounds disclosed in the present disclosure on cell proliferation of MCF-7 cells
The complete medium required for MCF-7 cells (source ATCC) was DMEM (gibco, Product number :11995-065) basal medium containing 10% fetal bovine serum. MCF-7 cells were inoculated in 96-well plates at a density of 800 cells/well, and different concentrations of the PROTAC compounds 1-55 provided in the embodiments of the present disclosure and a positive control sample ARV-471 (source: Innochem) were prepared to treat cells, and cells were treated at 37°C in a cell culture incubator with 5% CO2 for 9 days. Cell viability was detected using a CCK -8 kit (Beyotime , Product number: C0040) according to the manufacturer's instruction. […] Table 5 IC50 values for inhibition of the proliferation of MCF-7 cells by the PROTAC compounds of the present disclosure and positive control sample

ERα [1] = target: T1, ERα (Homo sapiens, UniProt P03372); assay: Degradation of ERα in MCF-7 cells (immunoblotting, 4 h)
T1 sequence (P03372 1-595): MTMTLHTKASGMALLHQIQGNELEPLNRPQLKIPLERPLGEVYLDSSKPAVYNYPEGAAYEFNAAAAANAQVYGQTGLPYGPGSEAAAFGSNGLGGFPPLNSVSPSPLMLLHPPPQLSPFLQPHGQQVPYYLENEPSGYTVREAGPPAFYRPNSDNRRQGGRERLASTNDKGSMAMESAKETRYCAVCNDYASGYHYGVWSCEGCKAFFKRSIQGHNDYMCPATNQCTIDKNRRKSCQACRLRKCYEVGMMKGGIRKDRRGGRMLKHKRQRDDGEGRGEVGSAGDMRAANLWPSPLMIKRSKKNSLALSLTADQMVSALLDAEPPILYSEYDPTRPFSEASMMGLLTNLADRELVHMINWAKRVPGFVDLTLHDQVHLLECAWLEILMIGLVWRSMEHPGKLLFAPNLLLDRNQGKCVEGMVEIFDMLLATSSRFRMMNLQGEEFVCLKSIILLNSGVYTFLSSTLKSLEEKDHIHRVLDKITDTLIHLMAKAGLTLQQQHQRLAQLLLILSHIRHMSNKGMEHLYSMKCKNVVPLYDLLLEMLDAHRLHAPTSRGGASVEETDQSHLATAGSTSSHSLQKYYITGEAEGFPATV
Protocol: MCF-7 cells were inoculated into 6-well plates at a density of 3×10^5 cells/well and cultured at 37°C, 5% CO2 for 24h. After the cells were attached to the wall, 1µL of the compound solution in dimethyl sulfoxide (final concentration 0.15-1000nM) was added and continued to be cultured in incubator at 37°C with 5% CO2 for 4 h. After 4 h, the culture medium was discarded, and each well was washed once with pre-cooled 1×DPBS, and the cells were lysed with a mixture of 50 µL of RIPA lysis buffer (P0013B, Beyotime) and 1× protease inhibitor (P1005, Beyotime), and then centrifuged at 14,000 g for 30 min at 4°C after resting on ice for 20 min, and the supernatant was carefully collected to detect the protein level of ERα by protein immunoblotting (Immunoblotting).
Protein immunoblotting: The total protein concentration in the collected cell lysate supernatant was determined by BCA Protein Concentration Assay Kit (Enhanced) (P0009, Beyotime). According to the total protein concentration detected by BCA, the protein was adjusted to 1 µg/µL with RIPA lysis buffer and 5× SDS-PAGE protein loading buffer (MB01015, Genscript), and the protein was denatured by water bath at 95°C for 5 min, and then centrifuged after denaturation to enrich the condensate on the wall of the centrifuge tubes as a loading sample. […] At the end of electrophoresis, the proteins in the SDS-PAGE gels were transferred to a PVDF membrane at a constant voltage of 100 V for 60 min. After that, the PVDF membrane corresponding to ERα protein and internal reference protein was cut out and incubated in 1×QµickBlock blocking solution (P0252, Beyotime) for 30 min at room temperature on a shaker. […] Protein profiles were analyzed by Image Studio Lite analysis software for grayscale values. Grayscale correction values were calculated for each sample using the Formula: corrected grayscale value = grayscale value of the target protein /corresponding grayscale value of the internal reference. The degradation rate for the compounds was then calculated by comparing the corrected grayscale values of the compound group to the control group. Table 7 Degradation rate (%) of ERα by the PROTAC compounds of the present disclosure and positive control sample in MCF-7 cells

ERα [2] = target: T1, ERα; assay: Degradation of ERα in T-47D cells (immunoblotting, 4 h); design: host or cells: T-47D
Protocol: T-47D cells were inoculated into 6-well plates at a density of 3×10^5 cells/well and cultured at 37°C, 5% CO2 for 24 h. After the cells were attached to the wall, 1µL of the compound solution in dimethyl sulfoxide (final concentration 0.15-1000 nM) was added and continued to be cultured in the incubator with 5% CO2 at 37°C for 4 h. After 4 h, the culture medium was discarded, and each well was washed once with pre-cooled 1×DPBS, and the cells were lysed with a mixture of 50 µL of RIPA lysis buffer (P0013B, Beyotime) and 1× protease inhibitor (P1005, Beyotime), and then centrifuged at 14,000 g for 30 min at 4°C after resting on ice for 20 min, and the supernatant was carefully collected to detect the protein level of ERα by protein immunoblotting (Immunoblotting).

Structure (SMILES) | IC50 (MCF-7 cells) [nM] | Degradation rate (%) of ERα in MCF-7 cells (ERα [1]; 1nM compound) [%] | Degradation rate (%) of ERα in MCF-7 cells (ERα [1]; 10nM compound) [%] | Degradation rate (%) of ERα in T-47D cells (ERα [2]; 1nM compound) [%] | Degradation rate (%) of ERα in T-47D cells (ERα [2]; 10nM compound) [%]
O=C1CCC(N2Cc3cc4c(cc3C2=O)OC2(CC4)CN(C3CCC(N4CCN(c5ccc([C@@H]6c7ccc(O)cc7CC[C@@H]6c6ccccc6)cc5)CC4)CC3)C2)C(=O)N1 (stereo partly shown) [B16] | 740 | -36 | 16 | 24 | 60
O=C1CCC(N2Cc3c(ccc4c3OCC43CCN(C4CCN(C(=O)C5CCC6(CC5)CCN(c5ccc([C@@H]7c8ccc(O)cc8CC[C@@H]7c7ccccc7)cc5)CC6)CC4)CC3)C2=O)C(=O)N1 (stereo partly shown) [B18] | 15.6 | 36 | 64 | 54 | 79
O=C1CCC(N2Cc3c(ccc4c3OCC43CCN(CCNC(=O)C4CCC5(CC4)CCN(c4ccc([C@@H]6c7ccc(O)cc7CC[C@@H]6c6ccccc6)cc4)CC5)CC3)C2=O)C(=O)N1 (stereo partly shown) [B19] | 4170 | 26 | 72 | 55 | 73
CN(CC1CCN(c2ccc([C@@H]3c4ccc(O)cc4CC[C@@H]3c3ccccc3)cc2)CC1)[C@H]1CC[C@@H](C(=O)N2CCC3(CC2)COc2c3ccc3c2CN(C2CCC(=O)NC2=O)C3=O)CC1 (stereo partly shown) [B34] | 179 | 64 | 71 | 71 | 83
CN(C1CCN(c2ccc([C@@H]3c4ccc(O)cc4CC[C@@H]3c3ccccc3)cc2)CC1)[C@H]1CC[C@@H](C(=O)N2CCC3(CC2)COc2c3ccc3c2CN(C2CCC(=O)NC2=O)C3=O)CC1 (stereo partly shown) [B35] | 49.7 | 60 | 72 | 74 | 88
O=C1CCC(N2Cc3c(ccc4c3OCC43CCN(C4CC5CCCC(C4)N5C(=O)C4CCN(c5ccc([C@@H]6c7ccc(O)cc7CC[C@@H]6c6ccccc6)cc5)CC4)CC3)C2=O)C(=O)N1 (stereo partly shown) [D1] | 9.05 | 19 | 68 | 34 | 83
O=C1CCC(N2Cc3c(ccc4c3OCC43CCN(C4CC5CC4CN5C(=O)C4CCN(c5ccc([C@@H]6c7ccc(O)cc7CC[C@@H]6c6ccccc6)cc5)CC4)CC3)C2=O)C(=O)N1 (stereo partly shown) [D2] | 3620 | 31 | 29 | 61 | 68
O=C1CCC(N2Cc3c(ccc4c3OCC43CCN(C4CC5CC4CN5C4CC5(CCN(c6ccc([C@@H]7c8ccc(O)cc8CC[C@@H]7c7ccccc7)cc6)CC5)C4)CC3)C2=O)C(=O)N1 (stereo partly shown) [D3] | 6.58 | 38 | 60 | 34 | 73
O=C1CCC(N2Cc3c(ccc4c3OCC43CCN(C4CN(C(=O)C5CCN(c6ccc([C@@H]7c8ccc(O)cc8CC[C@@H]7c7ccccc7)cc6)CC5)C4)CC3)C2=O)C(=O)N1 (stereo partly shown) [D4] | 3580 | 41 | 69 | 54 | 79
COC1(CN2CCC3(CC2)COc2c3ccc3c2CN(C2CCC(=O)NC2=O)C3=O)CCN(C(=O)C2CCN(c3ccc([C@@H]4c5ccc(O)cc5CC[C@@H]4c4ccccc4)cc3)CC2)CC1 (stereo partly shown) [D6] | 33000 | 38 | 59 | 59 | 84

Second part, the molecule after the results:

IC50 (MCF-7 cells) [nM] | Degradation rate (%) of ERα in MCF-7 cells (ERα [1]; 1nM compound) [%] | Degradation rate (%) of ERα in MCF-7 cells (ERα [1]; 10nM compound) [%] | Degradation rate (%) of ERα in T-47D cells (ERα [2]; 1nM compound) [%] | Degradation rate (%) of ERα in T-47D cells (ERα [2]; 10nM compound) [%] | Structure (SMILES)
16.6 | 37 | 61 | 52 | 76 | O=C1CCC(N2Cc3c(ccc4c3OCC43CCN(C(=O)CN4CCC5(CC4)CN(c4ccc([C@@H]6c7ccc(O)cc7CC[C@@H]6c6ccccc6)cc4)C5)CC3)C2=O)C(=O)N1 (stereo partly shown) [B17]
1630 | 42 | 64 | 47 | 73 | O=C1CCC(N2Cc3c(ccc4c3OCC43CCN(C(=O)CN4CC5(C4)CN(c4ccc([C@@H]6c7ccc(O)cc7CC[C@@H]6c6ccccc6)cc4)C5)CC3)C2=O)C(=O)N1 (stereo partly shown) [B20]
312 | 38 | 55 | 66 | 83 | O=C1CCC(N2Cc3c(ccc4c3OCC43CCN(CC(=O)N4CC5(C4)CN(c4ccc([C@@H]6c7ccc(O)cc7CC[C@@H]6c6ccccc6)cc4)C5)CC3)C2=O)C(=O)N1 (stereo partly shown) [B21]
11.8 | 38 | 70 | 47 | 83 | O=C1CCC(N2Cc3c(ccc4c3OCC43CCN(CC(=O)N4CCC5(CC4)CN(c4ccc([C@@H]6c7ccc(O)cc7CC[C@@H]6c6ccccc6)cc4)C5)CC3)C2=O)C(=O)N1 (stereo partly shown) [B22]
224 | 7 | 16 | -11 | 14 | O=C1CCC(N2Cc3c(ccc4c3OCC43CCN(CC(=O)N4CCC5(CCC(C#Cc6ccc([C@@H]7c8ccc(O)cc8CC[C@@H]7c7ccccc7)cc6)CC5)CC4)CC3)C2=O)C(=O)N1 (stereo partly shown) [B29]
9.92 | 19 | 40 | 15 | 46 | O=C1CCC(N2Cc3c(ccc4c3OCC43CCN(CC(=O)N4CC5(CCC(C#Cc6ccc([C@@H]7c8ccc(O)cc8CC[C@@H]7c7ccccc7)cc6)CC5)C4)CC3)C2=O)C(=O)N1 (stereo partly shown) [B30]
180 | 61 | 58 | 68 | 80 | O=C1CCC(N2Cc3c(ccc4c3OCC43CCN(CC4CN(C(=O)C5CCN(c6ccc([C@@H]7c8ccc(O)cc8CC[C@@H]7c7ccccc7)cc6)CC5)C4)CC3)C2=O)C(=O)N1 (stereo partly shown) [D5]
